{
  "source": "patent US10517854B2",
  "about": "“Dosing regiments of celgosivir for the treatment of dengue” (60 Degrees Pharmaceuticals, LLC, priority 2013, dated 2019)",
  "key": {"[1]": {"test_system": "DENV2 (TSV01 strain)", "assay": "Cell-based flaviviral immunodetection assay (CFI), DENV2", "conditions": "Dengue virus, DENV2, BHK-21, 48 h, DENV2, BHK21 cells", "method": "BHK21 cells were seeded at 1.3×104 in 96-well plate and incubated overnight at 37° C. in 5% CO2 incubator. Confluent monolayer of BHK21 cells were infected with DENV2 (TSV01 strain) at an MOI (multiplicity of infection) 0.3 in the presence of various concentrations of test compounds and incubated for 1 hour at 37° C. in 5% CO2 incubator. Infected cells were incubated with test compounds for another 48 hours at 37° C. in 5A CO2. Cells were fixed with methanol and mouse monoclonal antibody 4G2 was used to detect DENV E protein, which was quantified using a secondary anti-mouse antibody conjugated with horseradish peroxidase (HRP). Absorbance was read at 450 nm and dose-response curve was plotted accordingly. The 50% effective concentration (EC50), that is, the concentration of the test compound that decreased the level of viral E protein production by 50%, was calculated by nonlinear regression analysis."}, "[2]": {"test_system": "DENV2 in THP-1 human monocytes", "assay": "ADE infection of human monocytes (THP-1), plaque assay", "assay_type": "cell-based", "conditions": "Dengue virus, THP-1, DENV2 + 4G2 antibody, 48 hours, read-out: EC50, suppression of viral replication under ADE condition", "method": "The activity of celgosivir in infected human monocytes, one of the primary circulating cell types infected by dengue virus, was examined, THP-1 cells were grown in RPMI-1640 maintenance medium containing 10% fetal calf serum and 1% Penicillin-streptomycin and cultured in 37° C. incubator supplemented with 5% CO2. For ADE infection in THP-1 cells, virus (DENV2, MOI-10) was mixed with sub-neutralizing concentration of humanized 4G2 monoclonal antibody (0.05 μg/0.5 ml) and allowed to incubate on ice for 1 hr in the serum free medium, to allow immune complex formations. The immune complex was then added on to THP-1 (1×10^5) cells per well in a 24 well plate and further incubated for 2 hours at 37° C. incubator. An excess unbound immune complex was then removed by spinning cells at 1000 rpm for 5 min and then cells were supplemented with complete growth maintenance medium. For drug testing in the ADE condition, cells were mock (untreated) or celgosivir-treated for 48 hours, and finally media supernatant was collected for plaque assay analysis."}, "[3]": {"assay": "Population PK in dengue fever patients (NONMEM, predicted NCA parameters)", "assay_type": "in vivo, human", "conditions": "400 mg loading dose then 200 mg every 12 hours for 9 doses", "method": "Population pharmacokinetic (PK) analysis of castanospermine plasma concentration data after administration of celgosivir was performed using the non-linear mixed effects modelling software NONMEM (version 7.2.0). (16) Pharmacokinetic parameters were estimated using the first order conditional estimation method (FOCE) with eta-epsilon interaction. Due to limited data during the input phase, first-order absorption/formation of castanospermine was assumed. Between-subject variability was assumed to be log-nomally distributed. Model development was guided by objective function value (OFV), precision of the parameter estimates, inspection of standard goodness of lit plots and scientific plausability. The emperical Bayes estimates from the final model were used to predict individual concentrations for a standard saturated sampling design (i.e., samples collected at 0, 0.25, 0.5, 1, 1.5, 2, 4, 6 and 12 hours post-dose)) after the first dose (400 mg) and dose 9 (day 5; 200 mg). […] The NCA parameter values were derived using the statistical analysis software R (version 3.0.1). (17) NCA parameters after dose 9 were only determined for subject who received this dose. […]"}, "[4]": {"conditions": "cited from earlier work"}, "[5]": {"conditions": "cited from earlier work; for AUCss / Cmin,ss / t1/2 / tmax: HIV-positive patients"}, "[6]": {"conditions": "cited from earlier work"}, "[7]": {"conditions": "radiolabeled castanospermine, PO or IV, within 24 hr"}, "[8]": {"conditions": "celgosivir 10 mg/day for 14 days"}, "[9]": {"conditions": "celgosivir 20 mg/day for 14 days"}, "[10]": {"conditions": "celgosivir 40 mg/day for 14 days"}, "[11]": {"conditions": "celgosivir 80 mg/day for 14 days"}, "[12]": {"conditions": "celgosivir 160 mg/day for 14 days"}, "[13]": {"conditions": "celgosivir 240 mg/day for 14 days"}, "[14]": {"conditions": "celgosivir 360 mg/day for 14 days"}, "[15]": {"conditions": "celgosivir 450 mg/day for 14 days"}},
  "note": "Like-named read-outs stand apart in the source and are kept apart here.",
  "data": [
    {"molecule": "O[C@H]1[C@H](O)[C@@H](O)CN2CC[C@H](O)[C@H]12", "note": "[Castanospermine]", "values": [
      {"measurement": "EC50", "setting": "[1]", "value": "~21", "unit": "µM"},
      {"measurement": "EC50", "setting": "[2]", "value": 14, "unit": "µM"},
      {"measurement": "variability in exposure between subjects", "setting": "[3]", "value": "small to moderate"},
      {"measurement": "mean Cmax in the portal vein", "setting": "[4]; 400 mg/kg celgosivir PO", "value": 105600, "unit": "ng/mL"},
      {"measurement": "AUC 0-60 min", "setting": "[4]; portal vein, 400 mg/kg celgosivir PO", "value": 63900, "unit": "ng·h/mL"},
      {"measurement": "route of excretion of radioactivity", "setting": "[4]; [7]", "value": "majority of radioactivity was detected within urine"},
      {"measurement": "urinary radioactivity identified as castanospermine", "setting": "[4]; [7]", "value": "more than 92%"},
      {"measurement": "AUCss", "setting": "[5]; [8]", "value": 1000, "unit": "ng·h/mL"},
      {"measurement": "Cmin,ss", "setting": "[5]; [8]", "value": 8, "unit": "ng/mL"},
      {"measurement": "t1/2", "setting": "[5]; [8]", "value": 13, "unit": "h"},
      {"measurement": "tmax", "setting": "[5]; [8]", "value": 0.7, "unit": "h"},
      {"measurement": "AUCss", "setting": "[5]; [9]", "value": 1750, "unit": "ng·h/mL"},
      {"measurement": "Cmin,ss", "setting": "[5]; [9]", "value": 11, "unit": "ng/mL"},
      {"measurement": "t1/2", "setting": "[5]; [9]", "value": 27, "unit": "h"},
      {"measurement": "tmax", "setting": "[5]; [9]", "value": 1, "unit": "h"},
      {"measurement": "AUCss", "setting": "[5]; [10]", "value": 3610, "unit": "ng·h/mL"},
      {"measurement": "Cmin,ss", "setting": "[5]; [10]", "value": 23, "unit": "ng/mL"},
      {"measurement": "t1/2", "setting": "[5]; [10]", "value": 30, "unit": "h"},
      {"measurement": "tmax", "setting": "[5]; [10]", "value": 1, "unit": "h"},
      {"measurement": "AUCss", "setting": "[5]; [11]", "value": 6530, "unit": "ng·h/mL"},
      {"measurement": "Cmin,ss", "setting": "[5]; [11]", "value": 29, "unit": "ng/mL"},
      {"measurement": "t1/2", "setting": "[5]; [11]", "value": 16, "unit": "h"},
      {"measurement": "tmax", "setting": "[5]; [11]", "value": 0.3, "unit": "h"},
      {"measurement": "AUCss", "setting": "[5]; [12]", "value": 13300, "unit": "ng·h/mL"},
      {"measurement": "Cmin,ss", "setting": "[5]; [12]", "value": 70, "unit": "ng/mL"},
      {"measurement": "t1/2", "setting": "[5]; [12]", "value": 21, "unit": "h"},
      {"measurement": "tmax", "setting": "[5]; [12]", "value": 0.8, "unit": "h"},
      {"measurement": "AUCss", "setting": "[5]; [13]", "value": 21500, "unit": "ng·h/mL"},
      {"measurement": "Cmin,ss", "setting": "[5]; [13]", "value": 110, "unit": "ng/mL"},
      {"measurement": "t1/2", "setting": "[5]; [13]", "value": 16, "unit": "h"},
      {"measurement": "tmax", "setting": "[5]; [13]", "value": 0.6, "unit": "h"},
      {"measurement": "AUCss", "setting": "[5]; [14]", "value": 32100, "unit": "ng·h/mL"},
      {"measurement": "Cmin,ss", "setting": "[5]; [14]", "value": 179, "unit": "ng/mL"},
      {"measurement": "t1/2", "setting": "[5]; [14]", "value": 15, "unit": "h"},
      {"measurement": "tmax", "setting": "[5]; [14]", "value": 0.7, "unit": "h"},
      {"measurement": "AUCss", "setting": "[5]; [15]", "value": 39800, "unit": "ng·h/mL"},
      {"measurement": "Cmin,ss", "setting": "[5]; [15]", "value": 191, "unit": "ng/mL"},
      {"measurement": "t1/2", "setting": "[5]; [15]", "value": 14, "unit": "h"},
      {"measurement": "excretion and metabolites", "setting": "[5]; humans", "value": "excreted unchanged in the urine, with no other metabolites detected"},
      {"measurement": "gastrointestinal effects", "setting": "[6]; 2 g/kg, sucrose- and starch containing diets", "value": "severe diarrhea and high intestinal bacterial counts"},
      {"measurement": "GI toxicity", "setting": "[6]; diet of proteins, vitamins and glucose without sucrose or complex carbohydrates", "value": "ameliorated"}
    ]}
  ]
}
